Results from patent US7169393B2, “Antigenic peptide fragments of VapA protein, and uses thereof” (Rural Industries Research & Development Coporation, priority 2000, dated 2007).

Tested on: antibodies in sera of foals (goat anti-horse IgG detection)
Experiment: Peptide ELISA: biotinylated overlapping VapA peptides screened with foal sera
Type: binding
Conditions: for number of positive sera recognizing (positive with) the peptide: fifty-one positive sera (foals with current R. equi disease), 1 in 250, positive = at least twice background OD at 450 nm
Description: Biotinylated peptides synthesized by Mimotopes, Victoria, Australia were used in all assays. The peptide bank used in the initial screening of sera was designed based upon the published sequence of VapA (Genbank accession No: D21236). A total of 50 overlapping peptides, each 11 amino acid residues in length (offset by 3 residues at a time) were synthesized beginning from the predicted signal peptide cleavage site between amino acids 31 and 32 up to and including the C terminus.
A total of seventy foal sera, most of these from animals aged between 4 to 12 weeks, were used to screen the peptides. Fifty-one sera were from foals with current R. equi disease (positive sera). Sixteen sera were from foals with no known history of R. equi infection and three sera were from foals that had recovered from R. equi infection 10 months previously (negative sera). Thirty-nine of the positive sera and all negative sera were obtained from studs in South Australia and New South Wales, Australia.
Biotin-SGSG(spacer) labelled peptide units were used as antigen targets. Neutravidin bound to the surface of a micro-titre plate was then used to bind the biotin labelled peptide to the plate. The procedure is as follows:
A solution of neutravidin was diluted 1 in 300 in sterile distilled water to a final concentration of 3.3 μg/ml, and 100 μl per well was added to a micro-titre plate and the plate was left overnight at 37° C. 200 μl 1% casein/1×PBS/0.05% Tween 20 was then added to each well and the plate was left for at least 1 hour at room temperature (or at 4° C. if left longer) before the solution in the plate was flicked out. The plate was then washed five times with 1×PBS/0.05% Tween 20 using an automatic plate washer and the plates were dried by slapping against absorbent paper. […]
The plate was then read using an ELISA plate reader at 450 nm.
Interpretation of data. […] The background OD was the mean of the lowest 50% of all OD values obtained with that particular serum and all OD readings that were twice this value were considered positive. […]

Sequence | number of positive sera recognizing (positive with) the peptide | number of positive sera positive with only this peptide (fifty-one positive sera, fifty-peptide bank)
NLQKDEPNGRA [Seq I.D. No. 47] | fifty-one | two
YLNINFFDSSG [Seq I.D. No. 133] | Ten | –
